Among the data in BindingDB's records for PubMed 20126400 (University of Oklahoma, 2010) are Ki values, retold here.

What all share (test): Ray2010 Assay 74
Assay [1] deals with Delta-type opioid receptor (Homo sapiens, UniProt P41143). The source says: (§1) Table S2 shows raw Ki data for the current study combined with data collected from the literature for the ten additional compounds.
For assay [2], the target named is 5-hydroxytryptamine receptor 5A (Homo sapiens, UniProt P47898).
Source text: as §1

A further assay has as its target Histamine H4 receptor (Homo sapiens, UniProt Q9H3N8).
Source text: as §1

Assay [3] addresses Beta-1 adrenergic receptor (Homo sapiens, UniProt P08588).
Source text: as §1

Assay [4] deals with 5-hydroxytryptamine receptor 6 (Homo sapiens, UniProt P50406).
Chain of 5-hydroxytryptamine receptor 6 (P50406 whole entry): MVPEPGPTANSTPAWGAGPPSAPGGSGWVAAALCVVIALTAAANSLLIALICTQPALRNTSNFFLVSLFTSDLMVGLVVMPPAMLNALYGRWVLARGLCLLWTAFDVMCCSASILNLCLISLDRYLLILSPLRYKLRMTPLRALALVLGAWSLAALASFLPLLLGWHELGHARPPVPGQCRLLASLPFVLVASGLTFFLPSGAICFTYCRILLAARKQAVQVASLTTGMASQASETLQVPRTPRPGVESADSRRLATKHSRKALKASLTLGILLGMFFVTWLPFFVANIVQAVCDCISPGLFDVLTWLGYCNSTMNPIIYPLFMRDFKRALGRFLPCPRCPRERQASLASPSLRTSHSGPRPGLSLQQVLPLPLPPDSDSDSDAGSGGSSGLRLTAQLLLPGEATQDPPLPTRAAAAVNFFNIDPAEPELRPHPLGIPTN
Source text: as §1

Assay [5] deals with Glutamate receptor ionotropic, NMDA 2A (Homo sapiens, UniProt Q12879).
Source text: as §1

Assay [6] concerns the target Sodium-dependent dopamine transporter (Homo sapiens, UniProt Q01959).
Source text: as §1

The next assay has as its target Histamine H2 receptor (Homo sapiens, UniProt P25021).
Source text: as §1

The target of assay [7] is T1, Alpha-1A adrenergic receptor (Homo sapiens, UniProt P35348).
T1 sequence (P35348 whole entry): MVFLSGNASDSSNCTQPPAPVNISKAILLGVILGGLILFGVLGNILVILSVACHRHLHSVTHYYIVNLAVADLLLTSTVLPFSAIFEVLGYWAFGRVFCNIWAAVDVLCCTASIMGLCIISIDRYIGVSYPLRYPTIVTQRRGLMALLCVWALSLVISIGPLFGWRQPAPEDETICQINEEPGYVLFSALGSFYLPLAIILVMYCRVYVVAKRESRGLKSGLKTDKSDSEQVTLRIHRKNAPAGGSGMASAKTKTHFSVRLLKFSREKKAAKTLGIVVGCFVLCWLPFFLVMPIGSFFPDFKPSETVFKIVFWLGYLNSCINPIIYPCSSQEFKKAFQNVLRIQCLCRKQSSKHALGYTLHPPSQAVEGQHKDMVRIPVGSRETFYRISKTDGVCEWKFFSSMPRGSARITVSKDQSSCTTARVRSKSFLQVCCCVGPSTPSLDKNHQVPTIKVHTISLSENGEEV
Source text: as §1

In a further assay the target is Histamine H1 receptor (Homo sapiens, UniProt P35367).
Source text: as §1

Assay [8] has as its target 5-hydroxytryptamine receptor 2B (Homo sapiens, UniProt P41595).
Source text: as §1

For assay [9], the target named is 5-hydroxytryptamine receptor 1D (Homo sapiens, UniProt P28221).
Chain of 5-hydroxytryptamine receptor 1D (P28221 whole entry): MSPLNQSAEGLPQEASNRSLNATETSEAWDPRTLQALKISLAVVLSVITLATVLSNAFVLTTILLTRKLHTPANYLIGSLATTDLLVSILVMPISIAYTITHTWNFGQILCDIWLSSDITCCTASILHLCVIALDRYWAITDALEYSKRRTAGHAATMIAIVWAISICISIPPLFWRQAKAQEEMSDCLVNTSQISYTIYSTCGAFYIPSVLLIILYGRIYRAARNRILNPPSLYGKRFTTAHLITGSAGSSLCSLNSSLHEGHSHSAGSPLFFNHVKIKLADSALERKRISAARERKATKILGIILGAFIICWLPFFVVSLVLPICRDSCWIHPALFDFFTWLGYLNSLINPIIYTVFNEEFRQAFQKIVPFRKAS
Source text: as §1

Another assay concerns the target D(1B) dopamine receptor (Homo sapiens, UniProt P21918).
Source text: as §1

The target in assay [10] is T2, Alpha-2A adrenergic receptor (Homo sapiens, UniProt P08913).
T2 sequence (P08913 whole entry): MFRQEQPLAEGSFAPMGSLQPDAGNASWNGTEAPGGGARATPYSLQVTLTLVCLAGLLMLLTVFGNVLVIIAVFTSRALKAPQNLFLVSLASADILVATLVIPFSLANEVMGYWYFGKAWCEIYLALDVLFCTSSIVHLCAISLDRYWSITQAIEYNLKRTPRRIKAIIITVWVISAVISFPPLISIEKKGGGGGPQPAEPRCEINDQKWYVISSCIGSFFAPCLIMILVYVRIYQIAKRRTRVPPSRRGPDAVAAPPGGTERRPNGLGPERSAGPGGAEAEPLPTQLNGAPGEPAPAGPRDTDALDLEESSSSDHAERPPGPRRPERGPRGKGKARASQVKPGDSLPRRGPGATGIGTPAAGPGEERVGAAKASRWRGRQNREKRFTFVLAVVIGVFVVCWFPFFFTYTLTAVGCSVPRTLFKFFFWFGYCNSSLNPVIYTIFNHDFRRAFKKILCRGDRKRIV
Source text: as §1

In assay [11] the target is T3, Muscarinic acetylcholine receptor M5 (Homo sapiens, UniProt P08912).
T3 sequence (P08912 whole entry): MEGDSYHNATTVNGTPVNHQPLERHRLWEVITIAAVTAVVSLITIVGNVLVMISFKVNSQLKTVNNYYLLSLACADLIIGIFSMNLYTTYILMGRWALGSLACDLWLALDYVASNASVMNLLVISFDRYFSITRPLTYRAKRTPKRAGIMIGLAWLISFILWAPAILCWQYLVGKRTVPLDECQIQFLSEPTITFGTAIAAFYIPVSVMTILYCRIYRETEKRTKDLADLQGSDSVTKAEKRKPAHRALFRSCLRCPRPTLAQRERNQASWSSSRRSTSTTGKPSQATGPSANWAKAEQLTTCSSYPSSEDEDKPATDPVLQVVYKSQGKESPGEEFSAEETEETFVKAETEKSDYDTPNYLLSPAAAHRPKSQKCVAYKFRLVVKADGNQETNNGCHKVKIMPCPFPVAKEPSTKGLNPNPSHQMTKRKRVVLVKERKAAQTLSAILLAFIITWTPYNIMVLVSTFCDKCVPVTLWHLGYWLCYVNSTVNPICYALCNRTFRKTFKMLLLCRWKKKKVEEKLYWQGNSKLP
Source text: as §1

In assay [12] the target is T4, 5-hydroxytryptamine receptor 3A (Homo sapiens, UniProt P46098).
T4 sequence (P46098 whole entry): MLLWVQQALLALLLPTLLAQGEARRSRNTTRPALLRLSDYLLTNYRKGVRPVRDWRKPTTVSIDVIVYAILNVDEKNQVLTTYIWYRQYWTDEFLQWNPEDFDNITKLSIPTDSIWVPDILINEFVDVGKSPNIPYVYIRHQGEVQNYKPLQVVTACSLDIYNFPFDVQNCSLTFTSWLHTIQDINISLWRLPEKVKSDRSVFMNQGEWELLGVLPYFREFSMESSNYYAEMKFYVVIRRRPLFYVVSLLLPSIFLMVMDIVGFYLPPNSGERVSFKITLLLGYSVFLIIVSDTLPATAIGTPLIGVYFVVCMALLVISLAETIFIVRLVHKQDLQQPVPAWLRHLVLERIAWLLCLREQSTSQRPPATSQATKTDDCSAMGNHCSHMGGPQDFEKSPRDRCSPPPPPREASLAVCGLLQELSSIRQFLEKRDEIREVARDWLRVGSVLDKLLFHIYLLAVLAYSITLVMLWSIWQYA
Source text: as §1

The next assay addresses Mu-type opioid receptor (Homo sapiens, UniProt P35372).
Source text: as §1

In assay [13] the target is 5-hydroxytryptamine receptor 1B (Homo sapiens, UniProt P28222).
Chain of 5-hydroxytryptamine receptor 1B (P28222 whole entry): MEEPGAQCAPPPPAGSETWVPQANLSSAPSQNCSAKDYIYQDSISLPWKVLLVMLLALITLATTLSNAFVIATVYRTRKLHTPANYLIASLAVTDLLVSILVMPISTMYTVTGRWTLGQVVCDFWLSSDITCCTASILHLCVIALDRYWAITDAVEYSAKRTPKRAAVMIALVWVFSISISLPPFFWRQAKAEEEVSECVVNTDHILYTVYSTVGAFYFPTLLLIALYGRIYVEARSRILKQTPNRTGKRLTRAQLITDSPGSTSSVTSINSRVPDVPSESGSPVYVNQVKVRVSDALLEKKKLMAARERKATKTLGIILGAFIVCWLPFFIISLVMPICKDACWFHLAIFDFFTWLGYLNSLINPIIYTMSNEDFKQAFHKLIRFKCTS
Source text: as §1

The target of the next assay is D(2) dopamine receptor (Homo sapiens, UniProt P14416).
Chain of D(2) dopamine receptor (P14416 whole entry): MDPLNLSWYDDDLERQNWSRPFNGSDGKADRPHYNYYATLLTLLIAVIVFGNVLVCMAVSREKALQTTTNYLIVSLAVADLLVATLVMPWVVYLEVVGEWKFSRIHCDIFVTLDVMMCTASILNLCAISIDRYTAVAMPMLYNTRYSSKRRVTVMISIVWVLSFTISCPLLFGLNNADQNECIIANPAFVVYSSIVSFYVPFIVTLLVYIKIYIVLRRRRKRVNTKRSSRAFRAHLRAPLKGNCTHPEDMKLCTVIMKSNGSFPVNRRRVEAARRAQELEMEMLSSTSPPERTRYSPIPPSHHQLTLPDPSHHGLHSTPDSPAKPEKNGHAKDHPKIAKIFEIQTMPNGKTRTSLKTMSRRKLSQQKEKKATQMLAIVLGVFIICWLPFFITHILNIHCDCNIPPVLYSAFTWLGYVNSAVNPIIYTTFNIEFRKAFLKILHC
Source text: as §1

Usually Ki stands for the dissociation constant of the complex between target and ligand, obtained from inhibition or displacement.

Chain of Histamine H2 receptor (P25021 whole entry): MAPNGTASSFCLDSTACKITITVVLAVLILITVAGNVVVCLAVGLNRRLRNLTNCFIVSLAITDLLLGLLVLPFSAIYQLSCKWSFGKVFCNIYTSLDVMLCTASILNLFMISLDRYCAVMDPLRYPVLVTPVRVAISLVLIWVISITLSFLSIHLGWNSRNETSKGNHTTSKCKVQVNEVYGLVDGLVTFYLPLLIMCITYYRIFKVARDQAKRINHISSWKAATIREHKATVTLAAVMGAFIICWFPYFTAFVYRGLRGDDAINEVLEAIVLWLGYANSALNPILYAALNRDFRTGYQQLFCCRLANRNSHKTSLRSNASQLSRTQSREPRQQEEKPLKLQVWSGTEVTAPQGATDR
Chain of Mu-type opioid receptor (P35372 whole entry): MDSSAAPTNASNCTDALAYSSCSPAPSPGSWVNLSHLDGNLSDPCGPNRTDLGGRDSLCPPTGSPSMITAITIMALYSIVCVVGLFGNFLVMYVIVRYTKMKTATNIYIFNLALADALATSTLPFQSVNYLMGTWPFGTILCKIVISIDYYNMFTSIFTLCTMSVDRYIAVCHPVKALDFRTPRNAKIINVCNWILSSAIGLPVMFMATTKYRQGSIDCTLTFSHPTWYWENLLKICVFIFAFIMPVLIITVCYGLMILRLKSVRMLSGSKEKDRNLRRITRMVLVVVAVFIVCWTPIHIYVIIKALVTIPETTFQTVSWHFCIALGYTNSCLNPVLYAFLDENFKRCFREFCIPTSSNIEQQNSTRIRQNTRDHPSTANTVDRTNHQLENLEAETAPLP
Chain of Histamine H4 receptor (Q9H3N8 whole entry): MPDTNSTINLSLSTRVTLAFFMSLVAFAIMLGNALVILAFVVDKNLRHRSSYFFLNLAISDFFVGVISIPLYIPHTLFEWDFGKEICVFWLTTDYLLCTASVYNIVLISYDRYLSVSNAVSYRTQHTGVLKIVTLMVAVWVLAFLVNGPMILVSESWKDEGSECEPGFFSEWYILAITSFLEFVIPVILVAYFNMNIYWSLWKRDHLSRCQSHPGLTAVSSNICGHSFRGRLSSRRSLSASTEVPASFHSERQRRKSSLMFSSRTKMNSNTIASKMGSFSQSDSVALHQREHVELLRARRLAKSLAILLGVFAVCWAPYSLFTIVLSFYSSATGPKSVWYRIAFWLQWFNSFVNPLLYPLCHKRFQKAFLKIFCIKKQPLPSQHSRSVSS
Chain of D(1B) dopamine receptor (P21918 whole entry): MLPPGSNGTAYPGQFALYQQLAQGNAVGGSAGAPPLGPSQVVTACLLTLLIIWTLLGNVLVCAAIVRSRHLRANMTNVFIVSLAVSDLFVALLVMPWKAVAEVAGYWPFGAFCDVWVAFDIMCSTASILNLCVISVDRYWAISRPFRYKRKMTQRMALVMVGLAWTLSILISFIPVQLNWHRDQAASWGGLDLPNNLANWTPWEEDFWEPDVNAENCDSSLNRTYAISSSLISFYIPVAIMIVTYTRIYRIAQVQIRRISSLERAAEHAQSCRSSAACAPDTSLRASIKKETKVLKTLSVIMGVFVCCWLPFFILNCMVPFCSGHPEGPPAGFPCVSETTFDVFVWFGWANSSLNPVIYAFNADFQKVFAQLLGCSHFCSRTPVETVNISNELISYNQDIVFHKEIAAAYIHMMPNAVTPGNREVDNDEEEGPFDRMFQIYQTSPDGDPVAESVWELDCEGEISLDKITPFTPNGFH
Chain of 5-hydroxytryptamine receptor 5A (P47898 whole entry): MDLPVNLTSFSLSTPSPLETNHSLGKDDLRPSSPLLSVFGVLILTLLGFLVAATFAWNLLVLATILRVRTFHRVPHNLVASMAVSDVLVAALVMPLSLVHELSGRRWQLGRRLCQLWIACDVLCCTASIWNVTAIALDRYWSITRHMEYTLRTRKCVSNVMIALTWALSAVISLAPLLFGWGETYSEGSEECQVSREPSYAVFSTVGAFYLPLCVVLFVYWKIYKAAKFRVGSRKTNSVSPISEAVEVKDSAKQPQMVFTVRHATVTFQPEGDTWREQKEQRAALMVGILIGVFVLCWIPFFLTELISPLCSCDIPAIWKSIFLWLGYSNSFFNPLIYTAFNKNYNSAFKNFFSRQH
Chain of 5-hydroxytryptamine receptor 2B (P41595 whole entry): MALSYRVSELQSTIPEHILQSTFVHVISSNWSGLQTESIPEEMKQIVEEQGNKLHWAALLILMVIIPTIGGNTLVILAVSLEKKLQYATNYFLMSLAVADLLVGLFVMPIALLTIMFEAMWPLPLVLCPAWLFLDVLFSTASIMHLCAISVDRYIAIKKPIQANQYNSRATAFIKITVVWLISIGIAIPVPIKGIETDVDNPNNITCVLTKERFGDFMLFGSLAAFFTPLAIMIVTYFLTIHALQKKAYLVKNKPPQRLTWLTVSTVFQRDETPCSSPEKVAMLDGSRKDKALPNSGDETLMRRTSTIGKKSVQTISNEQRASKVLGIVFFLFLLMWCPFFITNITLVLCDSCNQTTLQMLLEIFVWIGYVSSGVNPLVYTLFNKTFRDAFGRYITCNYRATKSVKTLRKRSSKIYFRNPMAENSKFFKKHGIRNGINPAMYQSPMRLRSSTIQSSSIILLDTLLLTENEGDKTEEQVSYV
Chain of Delta-type opioid receptor (P41143 whole entry): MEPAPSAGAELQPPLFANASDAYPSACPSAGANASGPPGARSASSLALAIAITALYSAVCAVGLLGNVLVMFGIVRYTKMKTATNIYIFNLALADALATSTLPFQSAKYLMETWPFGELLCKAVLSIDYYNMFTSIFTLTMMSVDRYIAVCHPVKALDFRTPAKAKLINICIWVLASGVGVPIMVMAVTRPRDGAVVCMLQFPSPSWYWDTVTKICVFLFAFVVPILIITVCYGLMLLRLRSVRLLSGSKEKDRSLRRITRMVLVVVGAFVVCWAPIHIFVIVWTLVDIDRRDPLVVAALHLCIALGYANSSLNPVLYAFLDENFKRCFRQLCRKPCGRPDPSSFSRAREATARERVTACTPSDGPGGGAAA

Regarding `CN(C)CCc1c[nH]c2cc(F)ccc12` [6-f-dmt], the Ki in assay [1] is greater than 10 µM; in [2] it was 0.96 µM; at Histamine H4 receptor it was greater than 10 µM; in [3], greater than 10 µM; in assay [4], 0.0256 µM; in assay [5], greater than 10 µM. In addition, the Ki in [6] is greater than 10 µM; on Histamine H2 receptor, 0.925 µM; in [7], 0.173 µM; at Histamine H1 receptor it was 0.0466 µM; in assay [8], 0.0298 µM; in [9] it was 0.0554 µM. In addition, the inhibitory constant (Ki) is 6.29 µM at D(1B) dopamine receptor; greater than 10 µM in assay [10]; greater than 10 µM in [11]; greater than 10 µM in [12]; greater than 10 µM at Mu-type opioid receptor; 0.218 µM in assay [13]. Moreover, at D(2) dopamine receptor, the Ki was 0.61 µM.

Consider `CCSc1cc(OC)c(CCN)cc1OC` [2C-T-2], for which the Ki was greater than 10 µM in [1]; greater than 10 µM in assay [2]; greater than 10 µM at Histamine H4 receptor; 9.2 µM in assay [3]; 1.36 µM in [4]; greater than 10 µM in assay [5]. Further, the Ki in assay [6] is greater than 10 µM; at Histamine H2 receptor it was greater than 10 µM; in assay [7], greater than 10 µM; at Histamine H1 receptor, greater than 10 µM; in [8], 0.006 µM; in assay [9] it was 0.0859 µM. Moreover, the Ki on D(1B) dopamine receptor was greater than 10 µM; in assay [10], 0.73 µM; in assay [11] it was 1.5 µM; in assay [12], greater than 10 µM; on Mu-type opioid receptor, greater than 10 µM; in [13], 0.858 µM. Further, the Ki on D(2) dopamine receptor turned out to be 2.79 µM.

In the case of `COc1cc(CC(C)N)cc(OC)c1OC` (stereo not drawn), the Ki (in assay [1]; in assay [2]; at Histamine H4 receptor; in [3]; in assay [4]; in [5]) was greater than 10 µM each time. In addition, the Ki was greater than 10 µM in assay [6]; greater than 10 µM at Histamine H2 receptor; greater than 10 µM in [7]; greater than 10 µM on Histamine H1 receptor; 0.477 µM in assay [8]; 3.03 µM in assay [9]. Besides, the Ki was greater than 10 µM at D(1B) dopamine receptor; 2.07 µM in [10]; greater than 10 µM in [11]; greater than 10 µM in assay [12]; greater than 10 µM at Mu-type opioid receptor; 2.86 µM in [13]. In addition, the Ki on D(2) dopamine receptor was greater than 10 µM.

As to `CCSc1cc(OC)c(CC(N)CC)cc1OC` (stereo not drawn) [1-(4-Ethylsulfanyl-2,5-dimethoxy-benzyl)-propylamine], the Ki is greater than 10 µM in assay [1]; 1.59 µM in assay [2]; greater than 10 µM on Histamine H4 receptor; greater than 10 µM in assay [3]; greater than 10 µM in [4]; greater than 10 µM in assay [5]. The Ki is greater than 10 µM in assay [6]; greater than 10 µM on Histamine H2 receptor; greater than 10 µM in [7]; greater than 10 µM at Histamine H1 receptor; 0.0581 µM in assay [8]; greater than 10 µM in assay [9]. The Ki (at D(1B) dopamine receptor; in assay [10]; in assay [11]; in [12]; at Mu-type opioid receptor; in assay [13]) was greater than 10 µM throughout. This compound also showed a Ki on D(2) dopamine receptor greater than 10 µM.

For `CCOc1cc(OC)c(CC(C)N)cc1OC` (stereo not drawn), the Ki (in assay [1]; in [2]; on Histamine H4 receptor; in assay [3]; in assay [4]; in assay [5]) was greater than 10 µM each time. Besides, the inhibition constant (Ki) in [6] is greater than 10 µM; at Histamine H2 receptor, greater than 10 µM; in assay [7], greater than 10 µM; on Histamine H1 receptor it was greater than 10 µM; in assay [8] it was 0.0645 µM; in [9], greater than 10 µM. Besides, the inhibitory constant (Ki) (on D(1B) dopamine receptor; in assay [10]; in assay [11]; in [12]; at Mu-type opioid receptor; in assay [13]) was greater than 10 µM throughout. In addition, the Ki at D(2) dopamine receptor is greater than 10 µM.

Regarding “CAS_82830-44-2::(2R)-1-(4-iodo-2,5-dimethoxyphenyl)propan-2-amine::DOI,(-)::US20250270173, Compound DOI”, the Ki in assay [1] was greater than 10 µM; in [2] it was greater than 10 µM; on Histamine H4 receptor, greater than 10 µM; in assay [3], 0.591 µM; in assay [4], 2.11 µM; in [5], greater than 10 µM. Besides, the Ki is greater than 10 µM in assay [6]; greater than 10 µM on Histamine H2 receptor; greater than 10 µM in [7]; 1.76 µM on Histamine H1 receptor; 0.336 µM in assay [8]; 0.458 µM in assay [9]. The Ki was greater than 10 µM at D(1B) dopamine receptor; 0.0737 µM in [10]; 2.21 µM in assay [11]; greater than 10 µM in [12]; greater than 10 µM on Mu-type opioid receptor; greater than 10 µM in assay [13]. Further, the Ki on D(2) dopamine receptor is greater than 10 µM.

With `COc1ccc2[nH]cc(CCN(C)C(C)C)c2c1` [5-meo-mipt], the Ki in assay [1] was greater than 10 µM; in assay [2], 0.953 µM; at Histamine H4 receptor it was greater than 10 µM; in [3] it was greater than 10 µM; in assay [4], 0.13 µM; in assay [5] it was greater than 10 µM. For the same compound, the Ki in assay [6] was greater than 10 µM; on Histamine H2 receptor, greater than 10 µM; in assay [7], greater than 10 µM; at Histamine H1 receptor, 4.82 µM; in [8] it was 0.0585 µM; in assay [9], 0.0225 µM. Also, the Ki on D(1B) dopamine receptor is greater than 10 µM; in [10] it was 0.175 µM; in assay [11], greater than 10 µM; in assay [12], greater than 10 µM; at Mu-type opioid receptor it was greater than 10 µM; in [13] it was 0.303 µM. Further, the Ki on D(2) dopamine receptor is greater than 10 µM.
